Measurements from patent US5674906A, “Stilbene compounds and pharmaceutical compositions containing them” (Ajinomoto Co., Inc., priority 1995, dated 1997).
In brackets after ≈: the same amount, converted by molar mass. Where a name gives a salt, the structure may show the parent alone. Read-outs that look alike come from different tables or passages of the source.

Legend:
[1] = test system: Mouse P388 leukemia cells; test: Evaluation of cytotoxicity: growth inhibition of mouse P388 leukemia cells (MTT method); format: cell-based; settings: 48 h, 37° C., 2 days, read-out: in vitro IC50 (50% growth inhibitory concentration)
Method: Evaluation of Cytotoxicity:
Mouse P388 leukemia cells were used as cancer cells, and a RPMI-1640 medium containing 5-μM 2-mercaptoethanol and 10% fetal bovine serum was used in the incubation. The above-mentioned cells were inoculated on a 96-well microplate in an amount of 1×10^4 cells/50 μl/well, and an aqueous solution of a test compound (4 μg/ml) was added thereto in an amount of 25 μl/well. The mixture was incubated at 37° C. for 2 days. Then, the number of live cells were counted using the MTT method, and a dose-response curve was then prepared. A 50% growth inhibitory concentration (IC50) given for the test compound was calculated according to the dose-response curve.

Colon 26 = test: Test for the pharmaceutical effect on mice: tumor growth inhibition of subcutaneously implanted Colon 26; settings: Mus musculus, Colon 26, iv, 504 h, read-out: in vivo I.R. (tumor growth inhibition rate)
Method: Test for the Pharmaceutical Effect on Mice:
Colon 26 which had been cloned subcutaneously in mice was cut with scissors, and implanted subcutaneously in mice by means of a trocar. One week later, the tumors were measured using calipers, and the volumes of the tumors were calculated. The mice were grouped (each group consisting of 3 mice). The test compound was dissolved with dimethylsulfoxide and diluted with 5% by volume Tween 80/saline. A 0.2 ml of the solution was injected intravenously once a day on Day 7, Day 11 and Day 15 after the implantation. On Day 21 after the implantation, the volumes of the tumors were measured. The volume of the tumor and the tumor growth inhibition rate (I.R.) were calculated using the following expressions. [formula]
^a) Administered intravenously once a day on day 7, day 11 and day 15

[2] = Minimum dose which shows death immediately after injection (toxic dose); format: in vivo, mice; settings: acute death immediately after injection
[3] = 40 mg/kg, intravenously once a day on day 7, day 11 and day 15, tumor volume on Day 21
[4] = 80 mg/kg, intravenously once a day on day 7, day 11 and day 15, tumor volume on Day 21
[5] = 10 mg/kg, intravenously once a day on day 7, day 11 and day 15, tumor volume on Day 21

| Compound | IC50 [1] [ng/mL] | Toxic Dose (minimum dose which show death immediately after injection) [2] [mg/kg] | other results |
| --- | --- | --- | --- |
| COc1ccc(/C=C(/C#N)c2cc(OC)c(OC)c(OC)c2)cc1NC(=O)[C@@H](N)CCCN [(E)-3-(3-Amino-4-methoxyphenyl)-2-(3,4,5-trimethoxyphenyl)-prop-2-enenitrile-L-ornithineamide Dihydrochloride] | 50 | – | inhibition in vivo at 10 mg/kg (Colon 26): 48.9% |
| COc1ccc(/C=C(/C#N)c2cc(OC)c(OC)c(OC)c2)cc1NC(=O)[C@@H]1CCCN1 [(E)-3-(3-Amino-4-methoxyphenyl)-2-(3,4,5-trimethoxyphenyl)-prop-2-enenitrile-L-prolineamide Hydrochloride] | 200 | 40 | inhibition in vivo at 40 mg/kg (Colon 26; [3]): 68.9% |
| COc1ccc(/C=C(/C#N)c2cc(OC)c(OC)c(OC)c2)cc1NC(=O)[C@H](C)N [(E)-3-(3-Amino-4-methoxyphenyl)-2-(3,4,5-trimethoxyphenyl)-prop-2-enenitrile-L-alanineamide Hydrochloride] | 0.5 | 80 | inhibition in vivo at 20 mg/kg (Colon 26; 20 mg/kg, intravenously once a day on day 7, day 11 and day 15, tumor volume on Day 21): 71% |
| COc1ccc(/C=C\c2cc(OC)c(OC)c(OC)c2)cc1NC(=O)[C@@H](N)[C@@H](C)O [(Z)-1-(3-Amino-4-methoxyphenyl)-2-(3,4,5-trimethoxyphenyl)-ethene-L-threonineamide] | 6 (≈ 14.4 nM) | – | inhibition in vivo at 80 mg/kg (Colon 26): 62.2% |
| COc1ccc(/C=C(/C#N)c2cc(OC)c(OC)c(OC)c2)cc1NC(=O)[C@@H](N)CCC(=O)O [(E)-3-(3-Amino-4-methoxyphenyl)-2-(3,4,5-trimethoxyphenyl)-prop-2-enenitrile-L-glutamylamide Hydrochloride] | 4 | 80 | inhibition in vivo at 40 mg/kg (Colon 26; [3]): 77% |
| COc1ccc(/C=C(/C#N)c2cc(OC)c(OC)c(OC)c2)cc1NC(=O)[C@@H](N)[C@@H](C)O [(E)-3-(3-Amino-4-methoxyphenyl)-2-(3,4,5-trimethoxyphenyl)-prop-2-enenitrile-L-threonineamide Hydrochloride] | 6 | – | inhibition in vivo at 40 mg/kg (Colon 26; [3]): 67% |
| COc1ccc(/C=C\c2cc(OC)c(OC)c(OC)c2)cc1NC(=O)[C@H](C)N [(Z)-1-(3-Amino-4-methoxyphenyl)-2-(3,4,5-trimethoxyphenyl)-ethene-L-alanineamide] | 2 (≈ 5.18 nM) | 80 | inhibition in vivo at 40 mg/kg (Colon 26): 51.9% |
| COc1ccc(/C=C(/C#N)c2cc(OC)c(OC)c(OC)c2)cc1NC(=O)[C@@H](N)CO [(E)-3-(3-Amino-4-methoxyphenyl)-2-(3,4,5-trimethoxyphenyl)-prop-2-enenitrile-L-serineamide Hydrochloride] | 2 | – | inhibition in vivo at 80 mg/kg (Colon 26; [4]): 75% |
| COc1ccc(/C=C\c2cc(OC)c(OC)c(OC)c2)cc1NC(=O)[C@@H](N)CO [(Z)-1-(3-Amino-4-methoxyphenyl)-2-(3,4,5-trimethoxyphenyl)-ethene-L-serineamide] | 4 (≈ 9.94 nM) | – | inhibition in vivo at 80 mg/kg (Colon 26; [4]): 72.9% |
| COc1ccc(/C=C\c2cc(OC)c(OC)c(OC)c2)cc1NC(=O)[C@@H](N)CC(C)C [(Z)-1-(3-Amino-4-methoxyphenyl)-2-(3,4,5-trimethoxyphenyl)-ethene-L-leucineamide] | 6 (≈ 14 nM) | 40 | inhibition in vivo at 40 mg/kg (Colon 26): 50.9% |
| COc1ccc(/C=C(/C#N)c2cc(OC)c(OC)c(OC)c2)cc1NC(=O)[C@@H](N)CCCCN [(E)-3-(3-Amino-4-methoxyphenyl)-2-(3,4,5-trimethoxyphenyl)-prop-2-enenitrile-L-lysineamide Dihydrochloride] | 13 | 20 | inhibition in vivo at 10 mg/kg (Colon 26; [5]): 33.8% |
| COc1ccc(/C=C(/C#N)c2cc(OC)c(OC)c(OC)c2)cc1NC(=O)CN [(E)-3-(3-Amino-4-methoxyphenyl)-2-(3,4,5-trimethoxyphenyl)-prop-2-enenitrile-glycineamide Hydrochloride] | 3 | 40 | inhibition in vivo at 20 mg/kg (Colon 26): 85.7% |
| COc1ccc(/C=C\c2cc(OC)c(OC)c(OC)c2)cc1NC(=O)CN [(Z)-1-(3-Amino-4-methoxyphenyl)-2-(3,4,5-trimethoxyphenyl)-ethene-glycineamide] | 2 (≈ 5.37 nM) | 80 | inhibition in vivo at 40 mg/kg (Colon 26): 33.3% |
| COc1ccc(/C=C(/C#N)c2cc(OC)c(OC)c(OC)c2)cc1NC(=O)[C@@H](N)CC(=O)O [(E)-3-(3-Amino-4-methoxyphenyl)-2-(3,4,5-trimethoxyphenyl)-prop-2-enenitrile-L-aspartylamide Hydrochloride] | 2 | 40 | inhibition in vivo at 10 mg/kg (Colon 26; [5]): 1.7% |
| COc1ccc(/C=C(/C#N)c2cc(OC)c(OC)c(OC)c2)cc1NC(=O)[C@@H](N)Cc1ccccc1 [(E)-3-(3-Amino-4-methoxyphenyl)-2-(3,4,5-trimethoxyphenyl)-prop-2-enenitrile-L-phenylalanineamide Hydrochloride] | 5 | 80 | inhibition in vivo at 40 mg/kg (Colon 26; [3]): 76.7% |
